Assay results taken from patent publication US11285220B2, “Materials and methods relating to linkers for use in protein drug conjugates” (Iksuda Therapeutics Limited, priority 2014, dated 2022).

Test: Reactivity of PL13 free acid with aspartic acid
Conditions: 10 equivalents Asp, pH 7.0, 18 hours, RT
Method: PL13 free acid was treated with 10 equivalents of aspartic acid (Asp) at pH 7.0 and at RT. Analysis was performed by RP-HPLC at gradient of 1% to 50% B over 15 minutes with detection at 254 nm.
50 μL of 2.61 mM PL13 free acid in methanol was mixed with […] of […] in buffer to give a final concentration of 0.42 mM PL13 free acid and 4.2 mM Asp.

- stability in the presence of Asp: stable
SMILES: C=Cc1cc(C)nc(CCC(=O)O)c1 [PL13 free acid]
